From paper PMC7737769, “Pharmacological inhibition of syntenin PDZ2 domain impairs breast cancer cell activities and exosome loading with syndecan and EpCAM cargo” (Journal of Extracellular Vesicles, 2020)
Several values for one entry are separate records, joined by “and”; a condition that tells them apart may be missing. Equal entries are not always repeated. Entries after “also recorded” stand apart in the source; their conditions may differ. Where two headings read alike, the source gives them in different places.

What was measured:
[1] = biological target: T1, syntenin‐SDC2 complex (GST-SyntFL / SDC2 peptide) (Homo sapiens, UniProt O00560); test: HTRF assay, syntenin-SDC2 interaction; format: biochemical; conditions: for IC50: HTRF dose-response, read-out: IC50 for syntenin‐SDC2 complexes; for inhibition at 400 µM: HTRF
T1 construct: residues 1–298 or syntenin full‐length (FL) for HTRF assays; made in house; host or cells: E. coli ER2566
T1 sequence (O00560 1-298): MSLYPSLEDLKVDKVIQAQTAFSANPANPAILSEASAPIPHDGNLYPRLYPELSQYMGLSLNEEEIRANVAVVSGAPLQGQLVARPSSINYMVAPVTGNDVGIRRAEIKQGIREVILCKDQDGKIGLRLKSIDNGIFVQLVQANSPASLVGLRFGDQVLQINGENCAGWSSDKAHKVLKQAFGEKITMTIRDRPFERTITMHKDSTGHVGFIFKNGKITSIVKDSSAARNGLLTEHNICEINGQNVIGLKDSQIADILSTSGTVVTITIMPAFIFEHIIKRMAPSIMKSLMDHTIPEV

[2] = tested on: biotinylated‐GST; test: HTRF control with biotinylated-GST (non-specific interference with FRET signal)
Procedure: HTRF assays were performed in white 96Well Small VolumeHiBase Polystyrene Microplates (Greiner) with a total working volume of […], as described previously (Milhas et al., 2016). Briefly, compounds were firstly dispensed into the wells at 400 µM for the primary screen or with serial DMSO dilutions for IC50 measurement assays. Primary screening assays have been performed in monoplicate while IC50 measurements were performed in triplicates. All HTRF reagents were purchased from CisBio Bioassays and reconstituted according to the supplier protocols. The plates were spun for 3 min at 500 × g and then incubated at 4°C for 16 h. The HTRF signals were recorded on a POLAR star Omega plate reader (BMG Labtech) with an excitation filter at 337 nm and fluorescence wavelength measurement at 620 and 665 nm, an integration delay of 60 µs and an integration time of 400 µs. Results were analysed with a two‐wavelength signal ratio: [intensity (665 nm)/intensity (620 nm)] × 10^4. Percentage of inhibition was calculated using the following equation: % inhibition = [(compound signal)–(min signal)]/[(max signal)–(min signal)] × 100, where ‘max signal’ is the signal ratio with the compound vehicle alone (DMSO) and ‘min signal’ the signal ratio without protein B. For IC50 measurements, values were normalized and fitted with Prism (GraphPad software) using the following equation: Y = 100/(1+((X/ IC50)ˆHill slope)).
The search strategy for PDZ2 syntenin inhibitors was based on the PDZ targeted library developed from Enamine compound collection. The PDZ targeted library was developed to cover virtually all PDZ domains. Consequently, to create the syntenin PDZ2 focused library we used two independent paths: docking of the PDZ targeted library against structures of syntenin PDZ2 available in Protein Data Bank and a random selection from the PDZ targeted library. The docking has produced 21 virtual hits, which were added to 118 randomly selected compounds (10% of the pan PDZ library). The resultant set of 139 compounds, syntenin PDZ library was subjected to experimental validation. The primary screen was performed at 400µM using a previously validated Homogeneous Time Resolved Fluorescence (HTRF) assay (Milhas et al., 2016). HTRF is based on Fluorescence Resonance Energy Transfer (FRET) between two fluorescent reagents. In the present case, Anti‐GST‐Terbium antibody and streptavidin‐bound Dynamic2 were used as donor and acceptor respectively. Interactions between GST PDZ‐fusion proteins and biotinylated peptides containing PDZ binding motifs were challenged with the potential inhibitors. In parallel, control experiments were performed with a biotinylated‐GST to verify that compounds were not interfering with the FRET signal in a non‐specific manner. To identify inhibitors of syntenin PDZ interactions, we tested for the effect of the 139 compounds on syntenin‐SDC2 and syntenin‐Frizzled7 complexes (Figure 1a; Table S1). When the HTRF signal dropped below 0.9, inhibition was considered as effective. […] Noteworthy, these compounds had no effect on other PDZ complexes like GRASP55‐JAM‐B or GRASP55‐JAM‐C and Erbin‐Erbb2 or Erbin‐P0071 (Figure 1c).

[3] = tested on: MCF‐7 cells; test: Cancer cell viability (Annexin V/7-AAD flow cytometry), MCF-7; format: cell-based; conditions: MCF-7, concentrations up to 100 µM, 48 h
Procedure: (§1) The effects of the compounds C58 and SyntOFF were tested both on MCF‐7 and MCF‐7 SyntKO cells. Briefly, the cells were treated with increasing concentrations of the compounds for 48 h and early/late apoptosis was measured by using the FITC Annexin V apoptosis detection kit with 7‐AAD (Biolegend, San Diego, CA, USA) according to the manufacturer. Annexin V positive but 7‐AAD negative (early apoptotic cells) and Annexin V positive and 7‐AAD positive (late stage apoptosis) was determined by using FACS LSRII flow cytometer (BD Biosciences) and data were analysed with Flowjo software (Tree Star).

[4] = tested on: MCF‐7 SyntKO cells; test: Cancer cell viability (Annexin V/7-AAD flow cytometry), MCF-7 SyntKO; format: cell-based; conditions: concentrations up to 100 µM, 48 h
Procedure: as §1

[5] = tested on: MCF‐7 cells; test: Wound-healing (migration) assay, MCF-7; format: cell-based; conditions: MCF-7, 100 µM, 24 h
Procedure: For migration assays, cells were treated with 1 ng/ml of mitomycin (Sigma M4287) overnight to inhibit cell division. Treated cells were plated in Ibidi culture‐inserts (Ibidi Cat‐80206) for 12 h to reach 90%–95% of confluence with or without compounds (100 µM). A wound was created by removing inserts from the dishes. Medium with or without compounds (100 µM) was refreshed to remove dead cells and the cells were observed under an inverted light microscope (Leica SP2) equipped with a camera. Images were taken by MetaMorph software every 10 min for 24 h. Measurements of cell velocity were calculated using the MetaMorph software.

[6] = tested on: MCF‐7 SyntKO cells; test: Mammosphere formation assay, MCF-7 SyntKO; format: cell-based; conditions: 100 µM
Procedure: MCF‐7 and MCF‐7 SyntKO cells were treated with increasing concentrations of compounds C58, SyntOFF (50‐100µM) or DMSO 0.2% as control. After 24 h, cells were trypsinized, re‐suspended in normal growth media and washed three times in PBS to remove serum. Cell concentration was determined using the LUNA-FL Automated Fluorescence Cell Counter (Logos Biosystem) and cells were then seeded at 1000 cells/ml in 6‐well Ultra low Adherence plates (Corning Inc., Corning, NY) in MEBM medium (Lonza) supplemented with 5 µg/ml insulin (Sigma‐Aldrich), 20 ng/ml recombinant epidermal growth factor (Sigma‐Aldrich), 1X of B27 supplement (Invitrogen, Carlsbad, CA, USA), 0.5 µg/ml hydrocortisone (Sigma‐Aldrich), 1X of β‐mercaptoethanol and 1% penicillin/streptomycin (Gibco). Fresh medium was added into the plates every 3–4 days. The number of spheres (diameter > 50 µm) was evaluated under microscope on days 7–10. Sphere formation was calculated as the number of spheres divided by the original number of cells seeded and normalized to control.

## CC(C)[C@H](NC(=O)CSc1ccc(Cl)cc1)C(=O)O [Compound C58]
[1]
  ligand efficiency: 0.24 kcal/mol/atom
  IC50: 350 µM and 349 µM
[1]; 400µM compound, Figure 1c
  GST SyntFL Syndecan 2 (signal ratio): 0.36
[1]; HTRF primary screen, 400µM, syntenin-SDC2 and syntenin-Frizzled7
  inhibition of syntenin PDZ interactions: inhibit
[1]; syntenin-SDC2 and syntenin-Frizzled 7 complexes, read-out: extent of inhibition of Syntenin‐PDZ complexes
  inhibition at 400 µM: 60%
[2]; 400µM compound, Figure 1c
  GST-biot (signal ratio): 0.92
[2]; HTRF primary screen, 400µM
  effect on control (biotinylated‐GST) FRET signals: no significant effect
[2]; primary screen, 400 µM compound, Table S1
  HTRF ASSAY GST-biot (HTRF signal ratio, control): 1.01
[3]
  toxicity (cell viability): not toxic; also recorded: non‐toxic
[4]
  toxicity (cell viability): not toxic
[5]
  cell migration (wound closure): decreases

## CC(C)[C@H](NC(=O)CCSc1ccc(Cl)cc1)C(=O)O [SyntOFF, (S)‐2‐(3‐(4‐chlorophenylthio)propanamido)‐3‐methylbutanoic acid]
[1]
  ligand efficiency: 0.30 kcal/mol/atom
  IC50: 37 µM
[1]; HTRF IC50
  fold improvement of the affinity as compared to C58: > 10 fold and 10 fold
[1]; read-out: inhibition of the syntenin‐SDC2 interaction
  inhibition at 400 µM: 96%
[3]
  toxicity (cell viability): non‐toxic
[6]
  mammosphere formation: no effect
